Assay results reported in paper PMC7767178 (International Journal of Molecular Sciences, 2020).
Read-outs that look alike come from different tables or passages of the source. Positions of bridges follow the written chain, without caps; N, C: chain ends. Residues, ends and D or L forms follow the SMILES beside them.

Key:
A. veronii ACCC61732 [1] = assay: Time-killing curves; type: cell-based; settings: 2× MIC; 1 × 10^5 CFU/mL, colony counting, 0–24 h
Procedure: Time-killing curves were performed as previously described. […] The sample of 100 μL was taken from each flask at 0, 0.5, 1, 2, 4, 6, 8, 10, 20, and 24 h, respectively, and serially diluted for colony counting. PBS and CIP were used as the negative and positive control, respectively.

A. veronii ACCC61732 [2] = assay: Post-antibiotic effect (PAE); type: cell-based; settings: for PAE: 2 h exposure, 1000-fold dilution, 37 °C, triplicate
Procedure: The samples were taken from flasks for counting each hour until bacterial cultures became turbid. The untreated bacteria severed as controls. The PAE was calculated using the following equation: PAE = T − C, where T is the time (h) required for the CFU in the test culture to increase by 10-fold from the count immediately after the drug removal and C is the corresponding time (h) for the control. The experiment was performed in triplicate.

[3] = tested on: A. veronii ACCC61732 mature biofilms; assay: Eradication of mature biofilms, crystal violet; type: cell-based; settings: 16× MIC, 24 h on 24 h biofilm
Procedure: A. veronii ACCC61732 cells (1 × 10^8 CFU/mL) were cultured in TSB medium in the 96-well plates at 37 °C for 24 h.

[4] = tested on: A. veronii ACCC61732 in biofilm; type: cell-based; settings: 2 h
Procedure: The mid-log phase A. veronii ACCC61732 cells (1 × 10^8 CFU/mL) were inoculated into in the 96-well plates and cultured for 24 h at 37 °C. The plates were washed twice with PBS. […] PBS was used as the negative control. The plates were treated with ultrasound for 5 min and the viable bacteria were counted on the TSA plates.

A. veronii X-1-06909 = assay: microbe, parasite or virus in culture; type: cell-based
Source text: (§1) All experiments were repeated three times.

E. coli CVCC25922 = assay: microbe, parasite or virus in culture; type: cell-based
Source text: as §1

S. pullorum CVCC1789 = assay: microbe, parasite or virus in culture; type: cell-based
Source text: as §1

S. pullorum CVCC1809 = assay: microbe, parasite or virus in culture; type: cell-based
Source text: as §1

S. enteritidis CVCC3377 = assay: microbe, parasite or virus in culture; type: cell-based
Source text: as §1

S. pullorum CVCC533 = assay: microbe, parasite or virus in culture; type: cell-based
Source text: as §1

Escherichia coli CVCC195 = assay: microbe, parasite or virus in culture; type: cell-based
Source text: as §1

E. coli CVCC1515 = assay: microbe, parasite or virus in culture; type: cell-based
Source text: as §1

[5] = tested on: Staphylococcus aureus ATCC43300; assay: microbe, parasite or virus in culture; type: cell-based
Source text: as §1

[6] = tested on: Candida albicans CMCC98001; assay: microbe, parasite or virus in culture; type: cell-based
Source text: as §1

E. coli CVCCO157 = assay: MIC, microtiter broth dilution; type: cell-based; settings: 37 °C, 16–18 h, three experiments
Source text: as §1

A. veronii ACCC61732 [7] = assay: Resistance development, 30 serial passages; type: cell-based; settings: A. veronii ACCC61732, 30 passages (30 days)
Procedure: The development of bacterial resistance of peptides was performed by the MIC assays. […] GEN, CIP, and PMB were used as controls. […] The MIC values were measured as described above. The serial passaging was repeated for 30 days.

A. veronii ACCC61732 [8] = assay: Inner membrane permeability, PI staining, flow cytometry; type: cell-based
Procedure: To analyze effects of peptides on the inner membrane, A. veronii ACCC61732 cells were cultured to mid-log phase at 37 °C in MHB medium, washed thrice with PBS, and resuspended in the PBS buffer to 1 × 10^8 CFU/mL. […] After fixation with PI, the samples were detected by a fluorescent inverted microscope and FACS Calibur Flow Cytometer (BD, San Jose, CA, USA), respectively. Cell Quest Pro software (BD, San Jose, CA, USA) was used for the data analysis.

MDR A. veronii ACCC61732 = assay: Mouse peritonitis model, survival; type: in vivo, ICR mice; settings: 5 μmol/kg i.p. 0.5 h after infection, seven days, six mice
Procedure: […]. The mice injected with only bacteria or saline served as the negative and blank control. The mouse survival was recorded daily for seven days.

[9] = A. veronii X-1-06909, broth dilution, 37 °C, 16–18 h, three experiments
[10] = E. coli CVCC25922, broth dilution, 37 °C, 16–18 h, three experiments
[11] = S. pullorum CVCC1789, broth dilution, 37 °C, 16–18 h, three experiments
[12] = S. pullorum CVCC1809, broth dilution, 37 °C, 16–18 h, three experiments
[13] = S. enteritidis CVCC3377, broth dilution, 37 °C, 16–18 h, three experiments
[14] = S. pullorum CVCC533, broth dilution, 37 °C, 16–18 h, three experiments
[15] = Escherichia coli CVCC195, broth dilution, 37 °C, 16–18 h, three experiments
[16] = E. coli CVCC1515, broth dilution, 37 °C, 16–18 h, three experiments
[17] = Staphylococcus aureus ATCC43300, broth dilution, 37 °C, 16–18 h, three experiments

Row | Structure (SMILES) | time to completely kill A. veronii ACCC61732 (A. veronii ACCC61732 [1]) | PAE (A. veronii ACCC61732 [2]; 1× MIC) [h] | PAE (A. veronii ACCC61732 [2]; 2× MIC) [h] | PAE (A. veronii ACCC61732 [2]; 4× MIC) [h] | bacteria in biofilm killed [4]; 8 [%] | bacteria in biofilm killed [4]; 16 [%] | MIC (A. veronii X-1-06909; [9]) [µg/mL] | MIC (A. veronii X-1-06909; read-out: MIC) [µM] | MIC (E. coli CVCC25922; [10]) [µg/mL] | MIC (S. pullorum CVCC1789; CVCC1789, read-out: MIC) [µM] | MIC (S. pullorum CVCC1789; [11]) [µg/mL] | MIC (S. pullorum CVCC1809; [12]) [µg/mL] | MIC (S. enteritidis CVCC3377; CVCC3377, read-out: MIC) [µM] | MIC (S. enteritidis CVCC3377; [13]) [µg/mL] | MIC (S. pullorum CVCC533; CVCC533, read-out: MIC) [µM] | MIC (S. pullorum CVCC533; [14]) [µg/mL] | MIC (Escherichia coli CVCC195; [15]) [µg/mL] | MIC (E. coli CVCC1515; [16]) [µg/mL] | MIC [5, 17] [µg/mL] | MIC (E. coli CVCCO157) [µg/mL] | other results
1 | CC(C)[C@H]1NC(=O)CNC(=O)[C@@H](CC(N)=O)NC(=O)[C@@H](CCCNC(=N)N)NC(=O)[C@@H](Cc2ccc(O)cc2)NC(=O)[C@@H](C(C)C)NC(=O)[C@H](NC(=O)[C@H](NC(=O)[C@@H](CC(N)=O)NC(=O)[C@@H](Cc2c[nH]c3ccccc23)NC(=O)[C@@H](C)NC(=O)[C@@H](Cc2ccccc2)NC(=O)CN)C(C)C)CSSC[C@H](C(=O)N[C@H](Cc2c[nH]cn2)C(=O)N[C@H](CCCNC(=N)N)C(=O)N[C@H](CCCNC(=N)N)C(=O)N[C@H](C)C(=O)N[C@H](CC(N)=O)C(N)=O)NC(=O)[C@@H](C(C)C)NC(=O)[C@@H](CCCNC(=N)N)NC1=O [DN6NH2] | ≤ 1 h | 0.68 ± 0.01 | 1.13 ± 0.11 | 3.36 ± 0.19 | 64.22 | 66.79 | 32 | 12.93 | 8 | 6.46 | 16 | 8 | 0.81 | 2 | 6.46 | 16 | 8 | 4 | 4 | 4 | inhibition of mature biofilms [3]: 91.90%; MIC (E. coli CVCC25922; CVCC25922, read-out: MIC): 3.23 µM; MIC (S. pullorum CVCC1809; CVCC1809, read-out: MIC): 3.23 µM; MIC (Escherichia coli CVCC195; CVCC195, read-out: MIC): 3.23 µM; MIC (E. coli CVCC1515; E. coli CVCC1515, broth dilution, 37 °C, 16–18 h, three experiments, read-out: MIC): 1.62 µM; MIC ([5]; Staphylococcus aureus ATCC43300, broth dilution, 37 °C, 16–18 h, three experiments, read-out: MIC): 1.62 µM; MIC ([6]; CMCC98001): 128 µg/mL; MIC (E. coli CVCCO157; read-out: MIC): 1.62 µM; increase of MIC after 30 serial passages (A. veronii ACCC61732 [7]): seven-fold; Permeability (PI-positive cells) (A. veronii ACCC61732 [8]; 1× MIC, 0.5 h): 0%; Permeability (PI-positive cells) (A. veronii ACCC61732 [8]; 1× MIC, 2 h): 3.42%; Permeability (PI-positive cells) (A. veronii ACCC61732 [8]; 2× MIC, 0.5 h): 9.16%; Permeability (PI-positive cells) (A. veronii ACCC61732 [8]; 2× MIC, 2 h): 9.83%; Permeability (PI-positive cells) (A. veronii ACCC61732 [8]; 4× MIC, 0.5 h): 41.93%; Permeability (PI-positive cells) (A. veronii ACCC61732 [8]; 4× MIC, 2 h): 33.73%
2 | CC(C)[C@H](N)C(=O)N[C@@H](Cc1ccccc1)C(=O)N[C@@H](C)C(=O)N[C@@H](Cc1c[nH]c2ccccc12)C(=O)N[C@@H](CC(N)=O)C(=O)N[C@H](C(=O)N[C@H]1CSSC[C@@H](C(=O)N[C@@H](Cc2c[nH]cn2)C(=O)N[C@@H](CCCNC(=N)N)C(=O)N[C@@H](CCCNC(=N)N)C(=O)N[C@@H](C)C(=O)N[C@@H](CC(N)=O)C(N)=O)NC(=O)[C@H](C(C)C)NC(=O)[C@H](CCCNC(=N)N)NC(=O)[C@H](C(C)C)NC(=O)[C@H](C(C)C)NC(=O)[C@H](CC(N)=O)NC(=O)[C@H](CCCNC(=N)N)NC(=O)[C@H](Cc2ccc(O)cc2)NC(=O)[C@H](C(C)C)NC1=O)C(C)C [V112N6NH2] (H-VFAWNVCVYRNVVRVCHRRAN-NH2; disulfide 7-16 (inferred)) | unable completely kill | 0.74 ± 0.02 | 1.48 ± 0.05 | 2.15 ± 0.13 | 46.21 | 52.04 | 32 | 12.51 | 8 | 6.25 | 16 | 8 | 0.78 | 2 | 6.25 | 16 | 8 | 4 | 32 | 8 | PAEs, range over 1×–4× MIC (A. veronii ACCC61732 [2]; 1× to 4× MIC): 0.74 to 2.15 h; MIC (E. coli CVCC25922; E. coli CVCC25922, broth dilution, 37 °C, 16–18 h, three experiments, read-out: MIC): 3.13 µM; MIC (S. pullorum CVCC1809; S. pullorum CVCC1809, broth dilution, 37 °C, 16–18 h, three experiments, read-out: MIC): 3.13 µM; MIC (Escherichia coli CVCC195; Escherichia coli CVCC195, broth dilution, 37 °C, 16–18 h, three experiments, read-out: MIC): 3.13 µM; MIC (E. coli CVCC1515; CVCC1515, read-out: MIC): 1.56 µM; MIC ([5]; ATCC43300, read-out: MIC): 12.5 µM; MIC ([6]; CMCC98001, read-out: MIC): >50.02 µM; MIC ([6]; Candida albicans CMCC98001, broth dilution, 37 °C, 16–18 h, three experiments): >128 µg/mL; MIC (E. coli CVCCO157; read-out: MIC): 3.13 µM; survival rate of mice (MDR A. veronii ACCC61732): 66.67%; increase of MIC after 30 serial passages (A. veronii ACCC61732 [7]): one-fold; Permeability (PI-positive cells) (A. veronii ACCC61732 [8]; 1× MIC, 0.5 h): 0%; Permeability (PI-positive cells) (A. veronii ACCC61732 [8]; 1× MIC, 2 h): 1.8%; Permeability (PI-positive cells) (A. veronii ACCC61732 [8]; 2× MIC, 0.5 h): 0%; Permeability (PI-positive cells) (A. veronii ACCC61732 [8]; 2× MIC, 2 h): 5.67%; Permeability (PI-positive cells) (A. veronii ACCC61732 [8]; 4× MIC, 0.5 h): 4.28%; Permeability (PI-positive cells) (A. veronii ACCC61732 [8]; 4× MIC, 2 h): 23.93%
